Source: ChEMBL document CHEMBL4177614, “Development of a microarray-based assay for efficient testing of new HSP70/DnaK inhibitors” (Bioorg Med Chem, 2017)
The source made the active and inactive calls. The calls are words filed in the database; no cut-off is given here.

Assays:
[1] = Displacement of Cy5-labelled (position-4) ATP from human HSP70 expressed in Escherichia coli BL21(DE3) after 16 hrs by microarray assay
Homo sapiens = species on record: Homo sapiens; experiment: Binding affinity to human HSP70 expressed in Escherichia coli BL21(DE3) at 100 uM after 16 hrs microarray assay
[2] = Displacement of Cy5-labelled (position-4) ATP from Mycobacterium tuberculosis HSP70 expressed in Escherichia coli BL21(DE3) after 16 hrs by microarray assay

| Structure (SMILES) | Kd [1] [nM] | EC50 [1] [nM] | Kd [2] [nM] | other results |
| --- | --- | --- | --- | --- |
| CC[N+]1=C(/C=C/C=C/C=C2/N(CCCCCC(=O)NCCCCCCNc3nc4c(N)ncnc4n3[C@@H]3O[C@H](COP(=O)(O)OP(=O)(O)OP(=O)(O)O)[C@@H](O)[C@H]3O)c3ccc(S(=O)(=O)O)cc3C2(C)C)C(C)(C)c2cc(S(=O)(=O)[O-])ccc21 | 2300 |  |  |  |
| COc1ccc(-c2c(OC)c(O)c(-c3ccc(O)cc3)c(O)c2OC)cc1 |  | 29000 |  |  |
| CC[N+]1=C(/C=C/C=C/C=C2/N(CCCCCC(=O)NCCCCCCNP(=O)(O)OP(=O)(O)OP(=O)(O)OC[C@H]3O[C@@H](n4cnc5c(N)ncnc54)[C@H](O)[C@@H]3O)c3ccc(S(=O)(=O)O)cc3C2(C)C)C(C)(C)c2cc(S(=O)(=O)[O-])ccc21 |  |  |  | Activity (Homo sapiens): inactive |
| CC[N+]1=C(/C=C/C=C/C=C2/N(CCCCCC(=O)NCCCCCCNc3ncnc4c3ncn4[C@@H]3O[C@H](COP(=O)(O)OP(=O)(O)OP(=O)(O)O)[C@@H](O)[C@H]3O)c3ccc(S(=O)(=O)O)cc3C2(C)C)C(C)(C)c2cc(S(=O)(=O)[O-])ccc21 |  | 484 | 30600 |  |
| COc1ccc(-c2c(O)c(O)c(-c3ccc(OC)cc3)c(OC)c2OC)cc1 |  | 49000 |  |  |
| Nc1ncnc2c1ncn2[C@@H]1O[C@H](COP(=O)(O)OP(=O)(O)OP(=O)(O)O)[C@@H](O)[C@H]1O [ADENOSINE TRIPHOSPHATE] | 37 | 1 | 37 | EC50 [2]: 1 nM |
